Measurements taken from patent EP0171702A1, “Benzoxazinone derivatives, preparation and use” (BEECHAM GROUP PLC, priority 1984, dated 1986).
Where two headings read alike, the source gives them in different places.

Key:
Male Sprague-Dawley rats = test: Effect on energy expenditure of rats; assay type: in vivo; conditions: percentage of rate of rats dosed with water; for response vs control in vivo at 3.6 mg/kg / response vs control in vivo at 8.9 mg/kg / response vs control in vivo at 32.6 mg/kg / response vs control in vivo at 7.1 mg/kg / response vs control in vivo at 3.7 mg/kg / response vs control in vivo at 7.2 mg/kg / response vs control in vivo at 4.3 mg/kg / response vs control in vivo at 4 mg/kg / response vs control in vivo at 8.2 mg/kg / response vs control in vivo at 4.1 mg/kg / response vs control in vivo at 21.6 mg/kg: Rattus norvegicus, po; for response vs control in vivo at 8.9 mg/kg: 8.9 mg/kg p.o.; for response vs control in vivo at 32.6 mg/kg: 32.6 mg/kg p.o.; for response vs control in vivo at 7.1 mg/kg: 7.1 mg/kg p.o.; for response vs control in vivo at 3.7 mg/kg: 3.7 mg/kg p.o.; for response vs control in vivo at 7.2 mg/kg: 7.2 mg/kg p.o.; for response vs control in vivo at 4.3 mg/kg: 4.3 mg/kg p.o.; for response vs control in vivo at 4 mg/kg: 4.0 mg/kg p.o.; for response vs control in vivo at 8.2 mg/kg: 8.2 mg/kg p.o.; for response vs control in vivo at 4.1 mg/kg: 4.1 mg/kg p.o.; for response vs control in vivo at 21.6 mg/kg: 21.6 mg/kg p.o.
Experimental: Water was provided ad lib at all times. The compounds were administered orally in water to 3 or 4 rats. A further 4 rats were dosed orally with water. The rats were placed in boxes through which air was drawn and the oxygen content of the air leaving the boxes was measured. The energy expenditure of the rats was calculated for 3 hours and for 21 hours after dosing from the volume of air leaving the boxes and its oxygen content, following the principles described by J.B. de V. Weir, J. Physiol. (London) 109, 1-9 (1949). The results are expressed as a percentage of the rate of energy expenditure of the rats dosed with water.

[1] = test system: spontaneously beating right atrium; test: Isolated rat atria: rate of the spontaneously beating right atrium; conditions: for EC50: molar concentration producing 50% of the compound's own maximum response; for Emax: read-out: Rate Intrinsic Activity
Experimental: (§1) Sprague-Dawley male rats (300-400g) are killed and the right and left atria dissected out independently and mounted on a combined tissue holder/electrode. […] The rate of the spontaneously beating right atrium (via an isometric transducer and a ratemeter) and the tension of the electrically paced left atrium (via an isometric transducer) are recorded on a M19 chart recorder.
(§2) After an initial stabilization period, the tissues are exposed to a maximal concentration of isoprenaline (10-^7M). The tissues are then washed several times until rate and tension return to baseline level. A dose-response curve to the test compound is then carried out.
(§3) Responses to each concentration of test compound are expressed as a percentage of the maximal responses to isoprenaline. Results are given in the form of (a) intrinsic activity (maximal effect of test compound with respect to isoprenaline maximum, i.e. isoprenaline intrinsic activity = 1) and (b) EC50 (the molar concentration at which the test compound produces 50% of its own maximum response).

[2] = test system: electrically paced left atrium; test: Isolated rat atria: tension of the electrically paced left atrium; conditions: for EC50: molar concentration producing 50% of the compound's own maximum response; for Emax: read-out: Tension Intrinsic Activity
Experimental: as §1, §2, §3

[3] = Krebs solution at 32°C, maximal effect relative to isoprenaline maximum (isoprenaline = 1)
[4] = Rattus norvegicus, Krebs solution at 32°C, maximal effect relative to isoprenaline maximum (isoprenaline = 1)
[5] = Rattus norvegicus, Krebs solution at 32°C
[6] = 3 h, 0-3h after dosing, read-out: Mean Energy Expenditure 0-3h
[7] = 21 h, 0-21h after dosing, read-out: Mean Energy Expenditure 0-21h
[8] = Rattus norvegicus, organ bath at 29°C, maximal effect relative to isoprenaline maximum (isoprenaline = 1)
[9] = Rattus norvegicus, organ bath at 29°C

## CC(Cc1ccc2c(c1)NC(=O)CO2)NCC(O)c1cccc(Cl)c1 (centres unmarked) [8 (14:86), 6-[2-[2-(3-Chlorophenyl)-2-hydroxyethylamino]-2-methylethyl]-2H-1,4-benzoxazin-3-(4H)-one]
Male Sprague-Dawley rats; 3 h, 3.6 mg/kg p.o., 0-3h after dosing, read-out: Mean Energy Expenditure 0-3h
  response vs control in vivo at 3.6 mg/kg: 125%
Male Sprague-Dawley rats; 21 h, 3.6 mg/kg p.o., 0-21h after dosing, read-out: Mean Energy Expenditure 0-21h
  response vs control in vivo at 3.6 mg/kg: 105%
[1]; [3]
  Rate Intrinsic Activity: 0.16
[1]; Krebs solution at 32°C
  EC50: 750 nM
[2]; [3]
  Tension Intrinsic Activity: 0.20
[2]; Krebs solution at 32°C
  EC50: 3800 nM

## CC(Cc1ccc2c(c1)NC(=O)CO2)NCC(O)c1cccc(Cl)c1 (centres unmarked) [8 (82:18), 6-[2-[2-(3-chlorophenyl)-2-hydroxyethylamino]-2-methylethyl]-2H-1,4-benzoxazin-3-(4H)-one]
Male Sprague-Dawley rats; 3.6 mg/kg p.o., 0-3h after dosing
  Mean Energy Expenditure 0-3h: 122%
Male Sprague-Dawley rats; 3.6 mg/kg p.o., 0-21h after dosing
  Mean Energy Expenditure 0-21h: 106%
[1]; Krebs solution at 32°C
  EC50: 240 nM
[1]; [4]
  Emax: 29%
[2]; [4]
  Emax: 12%
[2]; [5]
  EC50: 3200 nM

## CC(COc1ccc2c(c1)NC(=O)CO2)NCC(O)COc1ccccc1O (centres unmarked) [Example 5, 6-[2-[3-(2-hydroxyphenoxy)-2-hydroxypropylamino]-2-methylethoxy]-2H-1,4-benzoxazin-3-(4H)-one hemifumarate]
Male Sprague-Dawley rats; [6]
  response vs control in vivo at 8.9 mg/kg: 111%
Male Sprague-Dawley rats; [7]
  response vs control in vivo at 8.9 mg/kg: 100%
[1]; [4]
  Emax: 18%
[1]; [5]
  EC50: 35 nM

## CC(Cc1ccc2c(c1)NC(=O)CO2)NCC(O)COc1ccccc1O (centres unmarked) [Example 9, 6-[2-[3-(2-hydroxyphenoxy)-2-hydroxypropylamino]-2-methylethyl]-2H-1,4-benzoxazin-3-(4H)-one]
[1]; [4]
  Emax: 15%
[1]; [5]
  EC50: 30 nM
[2]; [4]
  Emax: 12%
[2]; [5]
  EC50: 28 nM

## CC(Cc1ccc2c(c1)NC(=O)CO2)NCC(O)c1ccccc1 (centres unmarked) [Example 10, 6-[2-[2-Phenyl-2-hydroxyethylamino]-2-methylethyl]-2H-1,4-benzoxazin-3-(4H)-one]
Male Sprague-Dawley rats; [6]
  response vs control in vivo at 32.6 mg/kg: 122%
Male Sprague-Dawley rats; [7]
  response vs control in vivo at 32.6 mg/kg: 101%

## CC(Cc1ccc2c(c1)NC(=O)CO2)NCC(O)COc1ccccc1 (centres unmarked) [Example 11, 6-[2-[3-Phenoxy-2-hydroxypropylamino]-2-methylethyl]-2H-1,4-benzoxazin-3-(4H)-one]
Male Sprague-Dawley rats; [6]
  response vs control in vivo at 7.1 mg/kg: 119%
Male Sprague-Dawley rats; [7]
  response vs control in vivo at 7.1 mg/kg: 108%
[1]; [4]
  Emax: 32%
[1]; [5]
  EC50: 53 nM
[2]; [4]
  Emax: 11%
[2]; [5]
  EC50: 100 nM

## CC(COc1ccc2c(c1)N(C)C(=O)CO2)NCC(O)c1cccc(Cl)c1 (centres unmarked) [Example 12, 6-[2-[2-(3-Chlorophenyl)-2-hydroxyethylamino]-2-methylethoxy]-4-methyl-2H-1,4-benzoxazin-3-(4H)-one hemifumarate]
Male Sprague-Dawley rats; [6]
  response vs control in vivo at 8.9 mg/kg: 109%
Male Sprague-Dawley rats; [7]
  response vs control in vivo at 8.9 mg/kg: 97%
[1]; [8]
  Emax: 98%
[1]; [9]
  EC50: 29 nM
[2]; [8]
  Emax: 90%
[2]; [9]
  EC50: 790 nM

## CC(Cc1ccc2c(c1)N(C)C(=O)CO2)NCC(O)c1cccc(Cl)c1 (centres unmarked) [Example 13, 6-[2-[2-(3-Chlorophenyl)-2-hydroxyethylamino]-2-methylethyl]-4-methyl-2H-1,4-benzoxazin-3-(4H)-one hemifumarate]
[1]; [8]
  Emax: 64%
[1]; [9]
  EC50: 250 nM
[2]; [8]
  Emax: 54%
[2]; [9]
  EC50: 15000 nM

## CC(Cc1ccc2c(c1)NC(=O)CO2)NCC(O)COc1ccc(O)cc1 (centres unmarked) [Example 14, 6-[2-[3-(4-Hydroxyphenoxy)-2-hydroxypropylamino]-2-methylethyl]-2H-1,4-benzoxazin-3-(4H)-one]
Male Sprague-Dawley rats; [6]
  response vs control in vivo at 3.7 mg/kg: 114%
Male Sprague-Dawley rats; [7]
  response vs control in vivo at 3.7 mg/kg: 103%
[1]; [4]
  Emax: 87%
[1]; [5]
  EC50: 400 nM
[2]; [4]
  Emax: 54%
[2]; [5]
  EC50: 1400 nM

## CC(COc1ccc2c(c1)NC(=O)CO2)NCC(O)c1ccc(O)cc1 (centres unmarked) [Example 15, 6-[2-[2-(4-Hydroxyphenyl)-2-hydroxyethylamino]-2-methylethoxy]-2H-1,4-benzoxazin-3-(4H)-one]
Male Sprague-Dawley rats; [6]
  response vs control in vivo at 7.2 mg/kg: 126%
Male Sprague-Dawley rats; [7]
  response vs control in vivo at 7.2 mg/kg: 103%
[1]; [4]
  Emax: 98%
[1]; [5]
  EC50: 44 nM
[2]; [4]
  Emax: 88%
[2]; [5]
  EC50: 160 nM

## C=CCOc1ccccc1OCC(O)CNC(C)COc1ccc2c(c1)NC(=O)CO2 (centres unmarked) [Example 16, 6-[2-[3-(2-Allyloxyphenoxy)-2-hydroxypropylamino]-2-methyl-ethoxy]-2H-1,4-benzoxazin-3-(4H)-one]
Male Sprague-Dawley rats; [6]
  response vs control in vivo at 4.3 mg/kg: 115%
Male Sprague-Dawley rats; [7]
  response vs control in vivo at 4.3 mg/kg: 101%

## COc1ccccc1OCC(O)CNC(C)COc1ccc2c(c1)NC(=O)CO2 (centres unmarked) [Example 17, 6-[2-[3-(2-Methoxyphenoxy)-2-hydroxypropylamino]-2-methyl-ethoxy]-2H-1,4-benzoxazin-3-(4H)-one]
Male Sprague-Dawley rats; [6]
  response vs control in vivo at 4 mg/kg: 112%
Male Sprague-Dawley rats; [7]
  response vs control in vivo at 4 mg/kg: 103%
[1]; [8]
  Emax: 91%
[1]; [9]
  EC50: 8.6 nM

## CC(COc1ccc2c(c1)NC(=O)CO2)NCC(O)COc1ccccc1 (centres unmarked) [Example 18, 6-[2-(2-Hydroxy-3-phenoxypropylamino)-2-methylethoxy]-2H-1,4-benzoxazin-3-(4H)-one]
Male Sprague-Dawley rats; [6]
  response vs control in vivo at 3.7 mg/kg: 155%
Male Sprague-Dawley rats; [7]
  response vs control in vivo at 3.7 mg/kg: 109%
[1]; [4]
  Emax: 52%
[1]; [5]
  EC50: 11 nM

## CC(COc1ccc2c(c1)NC(=O)CO2)NCC(O)COc1cccc2[nH]ccc12 (centres unmarked) [Example 19, 6-[2-[2-hydroxy-3-(indol-4-yloxy)propylamino]-2-methyl-ethoxy]-2H-1,4-benzoxazin-3-(4H)-one]
Male Sprague-Dawley rats; [6]
  response vs control in vivo at 8.2 mg/kg: 116%
Male Sprague-Dawley rats; [7]
  response vs control in vivo at 8.2 mg/kg: 114%
[1]; [8]
  Emax: 54%
[1]; [9]
  EC50: 130 nM

## CCc1cccc2cc(C(O)CNC(C)COc3ccc4c(c3)NC(=O)CO4)oc12 (centres unmarked) [Example 20, 6-[2-[2-(7-Ethylbenzofuran-2-yl)-2-hydroxyethylamino]-2-methylethoxy]-2H-1,4-benzoxazin-3-(4H)-one]
Male Sprague-Dawley rats; [6]
  response vs control in vivo at 4.1 mg/kg: 110%
Male Sprague-Dawley rats; [7]
  response vs control in vivo at 4.1 mg/kg: 107%
[1]; [8]
  Emax: 95%
[1]; [9]
  EC50: 63 nM
[2]; [8]
  Emax: 113%
[2]; [9]
  EC50: 130 nM

## CC(COc1ccc2c(c1)NC(=O)CO2)NCC(O)COc1cc(O)cc(O)c1 (centres unmarked) [Example 21, 6-[2-[3-(3,5-Dihydroxyphenoxy)-2-hydroxypropylamino]-2-methylethoxy]-2H-1,4-benzoxazin-3-(4H)-one hemifumarate]
Male Sprague-Dawley rats; [6]
  response vs control in vivo at 21.6 mg/kg: 110%
Male Sprague-Dawley rats; [7]
  response vs control in vivo at 21.6 mg/kg: 105%
[1]; [8]
  Emax: 85%
[1]; [9]
  EC50: 16 nM
